Reference: publication PMC9846560, “Silver-promoted solid-phase guanidinylation enables the first synthesis of arginine glycosylated Samoamide A cyclopeptide analogue” (Frontiers in Chemistry, 2023)
≈ marks a conversion by molar mass, not a printed value. Where a SMILES comes first, the peptide text is derived from it.

experiment: Solubility test (water solubility, saturated solution); format: physicochemical; settings: water (saturated aqueous solution), from solid: saturated aqueous solution at 25°C, sonicated approx. 10 min, centrifuged, supernatant diluted, UV absorbance at 214 nm against Samoamide A standard curve (C = 0.4646A - 0.0201)
Experimental: Samoamide A was precisely weighed, and 1 mg was placed in a 10 ml centrifuge tube and diluted to scale with 95% ethanol. Then, 0, 200, 400, 600, 800, 1,000 μl aliquots were pipetted in a 5 ml centrifuge tube and adjusted to 1 ml with 95% ethanol, and the aqueous solutions were measured on a scale, sonicated for 5 min, and placed at room temperature. An additional 1 ml of 95% ethanol was added, and water was added to the same method as the blank. The absorbance values were measured at 214 nm to obtain the linear regression equation of the standard curve.
Sufficient amounts of Samoamide A and its glycosylated derivatives were dissolved in aqueous solutions at a constant temperature of 25°C, sonicated for approximately 10 min, centrifuged and allowed to settle to remove the insoluble matter from the solution, and the upper layer of supernatant was taken, that is, the saturated solution. After the saturated solution was properly diluted, its absorbance value was measured at 214 nm, and the concentration of the saturated solution was calculated by substituting the above equation ([Chevalier et al., 2001]).

SMILES | solubility thermodynamic [µg/mL]
CC[C@H](C)[C@@H]1NC(=O)[C@@H]2CCCN2C(=O)[C@H](Cc2ccccc2)NC(=O)[C@H](C(C)C)NC(=O)[C@H](CC(C)C)NC(=O)[C@@H]2CCCN2C(=O)[C@@H]2CCCN2C(=O)[C@H](Cc2ccccc2)NC1=O [Samoamide A] (cyclo(LVFPIFPP)) | 730 (≈ 801 µM)

experiment: head-to-tail lactamisation of linear octapeptide (N-terminal Leu or Arg onto C-terminal Val or Arg), PyBOP (3 eq)/HOBt (3 eq)/DIPEA (6 eq), 0 °C to rt, 14 h; settings: the molecule shown is the open-chain precursor; 24-membered ring; DCM; 12.0 h

SMILES | ring closure, overall yield [%]
CC[C@H](C)[C@H](NC(=O)[C@H](Cc1ccccc1)NC(=O)[C@@H]1CCCN1C(=O)[C@H](CCCNC(=N)N[C@@H]1O[C@H](COC(C)=O)[C@@H](OC(C)=O)[C@H](OC(C)=O)[C@H]1NC(C)=O)NC(=O)[C@@H](N)CC(C)C)C(=O)N1CCC[C@H]1C(=O)N[C@@H](Cc1ccccc1)C(=O)N[C@H](C(=O)O)C(C)C [H-Leu-Arg(N-GlcNAc(OAc)3)-Pro-Phe-Ile-Pro-Phe-Val-OH] | 20

same assay, conditions: the molecule shown is the open-chain precursor; 24-membered ring; DCM; 14.0 h

SMILES | ring closure, overall yield [%]
CC[C@H](C)[C@H](NC(=O)[C@H](Cc1ccccc1)NC(=O)[C@H](CCCNC(=N)NS(=O)(=O)c1c(C)c(C)c2c(c1C)CC(C)(C)O2)NC(=O)[C@@H]1CCCN1C(=O)[C@@H](N)CC(C)C)C(=O)N1CCC[C@H]1C(=O)N[C@@H](Cc1ccccc1)C(=O)N[C@H](C(=O)O)C(C)C [H-Leu-Pro-Arg(Pbf)-Phe-Ile-Pro-Phe-Val-OH] | 10
CC[C@H](C)[C@H](NC(=O)[C@H](Cc1ccccc1)NC(=O)[C@@H]1CCCN1C(=O)[C@@H]1CCCN1C(=O)[C@@H](N)CC(C)C)C(=O)N1CCC[C@H]1C(=O)N[C@@H](Cc1ccccc1)C(=O)N[C@@H](CCCNC(=N)NS(=O)(=O)c1c(C)c(C)c2c(c1C)CC(C)(C)O2)C(=O)O [H-Leu-Pro-Pro-Phe-Ile-Pro-Phe-Arg(Pbf)-OH] | 6
CC[C@H](C)[C@H](NC(=O)[C@H](Cc1ccccc1)NC(=O)[C@@H]1CCCN1C(=O)[C@@H]1CCCN1C(=O)[C@@H](N)CC(C)C)C(=O)N[C@@H](CCCNC(=N)NS(=O)(=O)c1c(C)c(C)c2c(c1C)CC(C)(C)O2)C(=O)N[C@@H](Cc1ccccc1)C(=O)N[C@H](C(=O)O)C(C)C [H-Leu-Pro-Pro-Phe-Ile-Arg(Pbf)-Phe-Val-OH] | 5
Cc1c(C)c(S(=O)(=O)NC(=N)NCCC[C@H](NC(=O)[C@H](Cc2ccccc2)NC(=O)[C@@H]2CCCN2C(=O)[C@@H]2CCCN2C(=O)[C@@H](N)CC(C)C)C(=O)N2CCC[C@H]2C(=O)N[C@@H](Cc2ccccc2)C(=O)N[C@H](C(=O)O)C(C)C)c(C)c2c1OC(C)(C)C2 [H-Leu-Pro-Pro-Phe-Arg(Pbf)-Pro-Phe-Val-OH] | 6
CC[C@H](C)[C@H](NC(=O)[C@H](Cc1ccccc1)NC(=O)[C@@H]1CCCN1C(=O)[C@H](CCCNC(=N)NS(=O)(=O)c1c(C)c(C)c2c(c1C)CC(C)(C)O2)NC(=O)[C@@H](N)CC(C)C)C(=O)N1CCC[C@H]1C(=O)N[C@@H](Cc1ccccc1)C(=O)N[C@H](C(=O)O)C(C)C [H-Leu-Arg(Pbf)-Pro-Phe-Ile-Pro-Phe-Val-OH] | 10
CC[C@H](C)[C@H](NC(=O)[C@H](Cc1ccccc1)NC(=O)[C@@H]1CCCN1C(=O)[C@@H]1CCCN1C(=O)[C@@H](N)CCCNC(=N)NS(=O)(=O)c1c(C)c(C)c2c(c1C)CC(C)(C)O2)C(=O)N1CCC[C@H]1C(=O)N[C@@H](Cc1ccccc1)C(=O)N[C@H](C(=O)O)C(C)C [H-Arg(Pbf)-Pro-Pro-Phe-Ile-Pro-Phe-Val-OH] | 9
CC[C@H](C)[C@H](NC(=O)[C@H](Cc1ccccc1)NC(=O)[C@@H]1CCCN1C(=O)[C@@H]1CCCN1C(=O)[C@@H](N)CC(C)C)C(=O)N1CCC[C@H]1C(=O)N[C@@H](CCCNC(=N)NS(=O)(=O)c1c(C)c(C)c2c(c1C)CC(C)(C)O2)C(=O)N[C@H](C(=O)O)C(C)C [H-Leu-Pro-Pro-Phe-Ile-Pro-Arg(Pbf)-Val-OH] | 4
CC[C@H](C)[C@H](NC(=O)[C@H](Cc1ccccc1)NC(=O)[C@@H]1CCCN1C(=O)[C@@H]1CCCN1C(=O)[C@@H](N)CC(C)C)C(=O)N1CCC[C@H]1C(=O)N[C@@H](Cc1ccccc1)C(=O)N[C@H](C(=O)O)C(C)C [H-Leu-Pro-Pro-Phe-Ile-Pro-Phe-Val-OH] | 15
CC[C@H](C)[C@H](NC(=O)[C@H](CCCNC(=N)NS(=O)(=O)c1c(C)c(C)c2c(c1C)CC(C)(C)O2)NC(=O)[C@@H]1CCCN1C(=O)[C@@H]1CCCN1C(=O)[C@@H](N)CC(C)C)C(=O)N1CCC[C@H]1C(=O)N[C@@H](Cc1ccccc1)C(=O)N[C@H](C(=O)O)C(C)C [H-Leu-Pro-Pro-Arg(Pbf)-Ile-Pro-Phe-Val-OH] | 8
